# Assay results taken from patent US4771050A, “Thiolactam-n-acetic acid derivatives” (Takeda Chemical Industries, Ltd., priority 1986, dated 1988).
# Like-named read-outs stand apart in the source and are kept apart here.
# Tests used:
# [1] = molecular target: T1, aldose reductase from human placenta (Homo sapiens, UniProt P15121); experiment: Aldose reductase inhibition (in vitro study); type: biochemical; settings: for inhibition at 1 µM: 10^-6 M; for inhibition at 0.1 µM: 10^-7 M
# T1 construct: Partially purified aldose reductase from human placenta; from tissue; host or cells: human placenta
# Source text: 1. Aldose reductase inhibition (in vitro study)
# Partially purified aldose reductase from human placenta was used for the test of aldose reductase inhibitory effect according to the method of S. Hayman et al. described in Journal of Biological Chemistry, 240, 877 (1965) or the method of J. H. Kinoshita et al. described in Metabolism, 28, Supplement 1, 462 (1979).
# [2] = tested on: sorbitol accumulation in sciatic nerves of streptozocin diabetic rats; experiment: Inhibition of sorbitol accumulation in the tissue of experimentally induced diabetic rat; type: in vivo, rat (Spraque-Dawley); settings: for sorbitol accumulation: sciatic nerve, untreated control group = 100; for inhibition of sorbitol accumulation in vivo compared with control compounds (in words): vs control compounds A, B, C
# Description: Spraque-Dawley rats (male, 5-7-week-old, 5 animals per group) were fasted for 18 hours, and received injection of 70 mg/kg of streptozocin (Cal Biochem Co.) into the caudal vein under anesthesia with ether, so that diabetic rats were obtained. From immediately after the injection of streptozocin these rats were given orally the test compound of 50 mg/kg or 30 mg/kg in the form of 5% gum arabic suspension twice a day (at 10 a.m. and 5 p.m.) for 2 days. During this period the rats were allowed to take CE-2 diet (Clea Japan, Inc.) and water ad libitum. In the morning on the 3rd day (9 a.m.) the rats were killed (decapitation and venesection), and immediately the sciatic nerves were isolated, from which sorbitol was extracted according to the method of M. J. Peterson et al. described in Metabolism, 28, 456 (1979) and the sorbitol level was determined by the enzymatic method of P.S. Clements et al. in Science, 166, 1007 (1969).
# [3] = tested on: washed rat platelets; experiment: Inhibitory action on platelet aggregation (washed rat platelets); type: cell-based, rat (Spraque-Dawley); settings: for inhibition at 300 µM: 3 × 10^-4 M; for inhibition at 100 µM: 10^-4 M
# Description: 3. Inhibitory action on platelet aggregation
# Effect of 3,4-dihydro-2,8-diisopropyl-3-thioxo-2H-1,4-benzoxazine-4-acetic acid on platelet aggregation was examined using washed rat platelets.
# Platelet rich plasma (PRP) was prepared by centrifuging the blood at 150 xg for 15 min at room temperature. To prepare washed platelets, the PRP was centrifuged at 1500 xg for 10 min and the precipitated platelets were resuspended in Tyrode's solution. The number of platelets used was 7×10^5 cells/mm^3. Platelet aggregation was measured by the turbidmetric method using an aggregometer (Nikko Bioscience, Model PAR-4M, Tokyo). The test compound dissolved in 10 μl of water was added to 250 μl of washed platelet suspension and incubated at 37° C. for 3 min before 10 μl of aggregating agents ([…] of collagen, Nikko Bioscience or 10 μM of ADP, Shigma, St. Louis, Mo., at the final concentration) was added.
# [4] = Acute toxicity in mice (oral); parameters: species or system mouse (ICR); settings: in vivo, mouse, mortality during 14 days
# Source text: (§1) Acute toxicity of 3,4-dihydro-2,8-diisopropyl-3-thioxo-2H-1,4-benzoxazine-4-acetic acid was examined in mice and rats.
# (§2) The various doses of the test compound suspended in 5% gum arabic solution were orally administered to male ICR mice (4 weeks old) and male Wistar rats (5 weeks old), and then mortality was observed during 14 days. Each group consisted of 5 animals.
# [5] = Acute toxicity in rats (oral); parameters: species or system rat (Wistar); settings: in vivo, rat, mortality during 14 days
# Source text: as §1, §2
# [6] = 30 mg/kg orally twice a day for 2 days
# [7] = 50 mg/kg orally twice a day for 2 days
# [8] = Rattus norvegicus, Platelet, read-out: percent inhibition of aggregation, inducer ADP, Mean ± SD (N = 3)
# [9] = Rattus norvegicus, Platelet, inducer ADP, Mean ± SD (N = 3), read-out: percent inhibition of aggregation
# [10] = Rattus norvegicus, Platelet, inducer collagen, Mean ± SD (N = 3), read-out: percent inhibition of aggregation
inhibition at 1 µM [1],inhibition at 0.1 µM [1],SMILES,"sorbitol accumulation [2, 6]","sorbitol accumulation [2, 7]",also measured
47.1%,15.2%,"CCC(C)C1Sc2ccccc2N(CC(=O)O)C1=S (stereo not drawn) [Example 11, 3,4-dihydro-2-(1-methylpropyl)-3-thioxo-2H-1,4-benzothiazine-4-acetic acid]",67%,38%,inhibition of sorbitol accumulation in vivo compared with control compounds (in words) [2]: The difference is particularly evident
46.4%,20%,"CC(C)C1Sc2ccccc2N(CC(=O)O)C1=S (stereo not drawn) [Example 9, 3,4-dihydro-2-isopropyl-3-thioxo-2H-1,4-benzothiazine-4-acetic acid]",60%,46%,inhibition of sorbitol accumulation in vivo compared with control compounds (in words) [2]: The difference is particularly evident
39.3%,8%,"CC(C)C1Oc2c(cccc2C(C)(C)C)N(CC(=O)O)C1=S (stereo not drawn) [Example 19, 8-t-butyl-3,4-dihydro-2-isopropyl-3-thioxo-2H-1,4-benzoxazine-4-acetic acid]",15%,–,–
38.4%,4.6%,"CC(C)C1Oc2c(C3CCCCC3)cccc2N(CC(=O)O)C1=S (stereo not drawn) [Example 20, 8-cyclohexyl-3,4-dihydro-2-isopropyl-3-thioxo2H-1,4-benzoxazine-4-acetic acid]",25%,–,–
43%,19.2%,"CCOc1cccc2c1OC(C(C)C)C(=S)N2CC(=O)O (stereo not drawn) [Example 12, 8-ethoxy-3,4-dihydro-2isopropyl3-thioxo-2H-1,4-benzoxazine-4-acetic acid]",58%,–,–
45.7%,2.6%,"CC(C)C1Oc2cc(F)ccc2N(CC(=O)O)C1=S (stereo not drawn) [Example 17, 7-fluoro-3,4-dihydro-2isopropyl3-thioxo-2H-1,4-benzoxazine-4-acetic acid]",62%,–,–
46.8%,14.9%,"CCc1cccc2c1OC(C(C)C)C(=S)N2CC(=O)O (stereo not drawn) [Example 13, 8-ethyl-3,4-dihydro-2-isopropyl-3-thioxo-2H-1,4-benzoxazine-4-acetic acid]",35%,–,–

# The next lines start with the compound.
SMILES,inhibition at 1 µM [1],inhibition at 0.1 µM [1],"sorbitol accumulation [2, 6]","sorbitol accumulation [2, 7]",also measured
"O=C(O)CN1C(=S)CSc2ccccc21 [Control B, 3,4dihydro-3-thioxo-2H--1,4benzothiazine-4-acetic acid, reference compound]",43.1%,15.7%,–,78%,–
"CC(C)C1Oc2ccccc2N(CC(=O)O)C1=S (stereo not drawn) [Example 1, 3,4-dihydro-2-isopropyl-3-thioxo-2H-1,4-benzoxazine-4-acetic acid]",46.7%,19.1%,51%,18%,–
"COc1cccc2c1OC(C(C)C)C(=S)N2CC(=O)O (stereo not drawn) [Example 5, 3,4-dihydro-2-isopropyl-8-methoxy-3-thioxo-2H-1,4-benzoxazine-4-acetic acid]",48.1%,17.3%,29%,11%,–
"Cc1cccc2c1OC(C(C)C)C(=S)N2CC(=O)O (stereo not drawn) [Example 6, 3,4-dihydro-2-isopropyl-8-methyl-3-thioxo2H-1,4-benzoxazine-4-acetic acid]",48.2%,9.4%,33%,16%,–
"CC(C)C1Oc2c(Cl)cccc2N(CC(=O)O)C1=S (stereo not drawn) [Example 3, 8-chloro-3,4-dihydro-2-isopropyl-3-thioxo-2H-1,4-benzoxazine-4-acetic acid]",48.9%,8.9%,–,23%,–
"CC(C)C1Oc2ccc(F)cc2N(CC(=O)O)C1=S (stereo not drawn) [Example 2, 6-fluoro-3,4-dihydro-2-isopropyl-3-thioxo-2H-1,4-benzoxazine-4-acetic acid]",43.9%,8.7%,33%,12%,inhibition of sorbitol accumulation in vivo compared with control compounds (in words) [2]: The difference is particularly evident
"COc1ccc2c(c1)c(CC(=O)O)c(C)n2C(=O)c1ccc(Cl)cc1 [Indomethacin, reference compound]",–,–,–,–,"inhibition at 300 µM [3, 8]: 97.2 ± 6.4%; inhibition at 100 µM [3, 8]: 102 ± 8.4%; inhibition at 100 µM ([3]; Rattus norvegicus, Platelet, read-out: percent inhibition of aggregation, inducer collagen, Mean ± SD (N = 3)): 28.5 ± 1.9%"
"CC1Sc2ccccc2N(CC(=O)O)C1=S (stereo not drawn) [Control C, 3,4dihydro-2-methyl-3-thioxo-2H--1,4benzothiazine-4-acetic acid, reference compound]",48.7%,19.6%,–,71%,–
"CC(C)c1cccc2c1OC(C(C)C)C(=S)N2CC(=O)O (stereo not drawn) [Example 8, 3,4-dihydro-2,8-diisopropyl-3-thioxo-2H-1,4-benzoxazine-4-acetic acid]",50.2%,9.1%,30%,–,"inhibitory action compared with indomethacin (in words) ([3]; ADP-induced aggregation): more potent than that of indomethacin; inhibition at 300 µM [3, 9]: 42 ± 7.1%; inhibition at 100 µM [3, 9]: 90 ± 6%; inhibition at 300 µM [3, 10]: 24.1 ± 3.4%; inhibition at 30 µM ([3]; Rattus norvegicus, Platelet, inducer collagen, 3 × 10^-5 M, Mean ± SD (N = 3), read-out: percent inhibition of aggregation): 74.5 ± 5.5%; inhibition at 60 µM ([3]; Rattus norvegicus, Platelet, inducer collagen, 6 × 10^-5 M, Mean ± SD (N = 3), read-out: percent inhibition of aggregation): 46.5 ± 1.3%; inhibition at 100 µM [3, 10]: 31.8 ± 0.9%; inhibition of aggregation of washed platelets (in words) ([3]; induced by either collagen or ADP): inhibited aggregation of washed platelets induced by either collagen or ADP in a dose related manner; LD50 at 336 h [4]: 1880 mg/kg; LD50 at 336 h [5]: 2830 mg/kg"
"O=C(O)CN1C(=S)COc2ccc(F)cc21 [Control A, 6fluoro-3,4-dihydro-3-thioxo-2H--1,4benzoxazine-4-acetic acid, reference compound]",50.8%,25%,73%,60%,–
"CC(C)C1Oc2c(F)cccc2N(CC(=O)O)C1=S (stereo not drawn) [Example 4, 8-fluoro-3,4-dihydro-2-isopropyl-3-thioxo-2H-1,4-benzoxazine-4-acetic acid]",45.6%,3.8%,45%,14%,–
"COc1ccc2c(c1)OC(C(C)C)C(=S)N2CC(=O)O (stereo not drawn) [Example 7, 3,4-dihydro-2-isopropyl-7-methoxy-3-thioxo-2H-1,4-benzoxazine-4-acetic acid]",50%,14.9%,27%,–,–
